Where “and” joins values, the source holds several entries; their conditions need not be identical. Identical values can stand only once. Toxic doses and inconclusive results are not listed. The calls were made as follows: active = survival T/C of 150% or more; inactive = T/C below 125% in these data.
Test system: P388 leukemia ip, CD2F1 mice, survival T/C
Experiment: NCI In Vivo Anticancer Drug Screen. Data for tumor model P388 Leukemia (intraperitoneal) in CD2F1 (CDF1) mice
Details: endpoint: median survival time, higher = longer survival
In short: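 Mice carrying the transplanted tumor received test compound or vehicle. Survival was recorded in each group, and the value is the treated-group measurement divided by that of the vehicle-treated control group.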

[1] = dose: 50.0 mg/kg/injection, schedule: Q01DX009 (ip), vehicle: saline with Tween-80
[2] = dose: 100.0 mg/kg/injection, schedule: Q01DX009 (ip), vehicle: saline with Tween-80
[3] = dose: 100.0 mg/kg/injection, schedule: Q01DX009 (ip), vehicle: Klucel (hydroxypropylcellulose) (HPC)
[4] = dose: 200.0 mg/kg/injection, schedule: Q01DX009 (ip), vehicle: Klucel (hydroxypropylcellulose) (HPC)
[5] = dose: 50.0 mg/kg/injection, schedule: Q01DX005 (ip), vehicle: Klucel (hydroxypropylcellulose) (HPC)
[6] = dose: 100.0 mg/kg/injection, schedule: Q01DX005 (ip), vehicle: Klucel (hydroxypropylcellulose) (HPC)
[7] = dose: 25.0 mg/kg/injection, schedule: Q01DX009 (ip), vehicle: saline with Tween-80
[8] = dose: 60.0 mg/kg/injection, schedule: Q01DX005 (ip), vehicle: saline

Measured: T/C

Cc1c([C@H](C)[C@@H]2NC[C@@H](C)C[C@H]2O)ccc2c1C[C@H]1[C@H]2CC=C2C[C@@H](O)CC[C@@]21C
inactive: dose: 0.75 mg/kg/injection, schedule: Q01DX009 (ip), vehicle: saline with Tween-80 108 % of control | dose: 1.5 mg/kg/injection, schedule: Q01DX009 (ip), vehicle: saline with Tween-80 115 % of control | dose: 3.0 mg/kg/injection, schedule: Q01DX009 (ip), vehicle: saline with Tween-80 101 % of control and 113 % of control

COc1cc(NC(C)CCCN)c2ncccc2c1Sc1ccc(Cl)cc1 (configuration not stated)
inactive: dose: 3.13 mg/kg/injection, schedule: Q01DX009 (ip), vehicle: saline with Tween-80 89 % of control | dose: 6.25 mg/kg/injection, schedule: Q01DX009 (ip), vehicle: saline with Tween-80 94 % of control

CC(C)CC(NC(c1ccccc1)(c1ccccc1)c1ccccc1)C(=O)O (configuration not stated)
inactive: dose: 60.0 mg/kg/injection, schedule: Q01DX005 (ip), vehicle: Klucel (hydroxypropylcellulose) (HPC) 103 % of control | dose: 120.0 mg/kg/injection, schedule: Q01DX005 (ip), vehicle: Klucel (hydroxypropylcellulose) (HPC) 106 % of control

OC1C2CCCC1C(c1ccccc1)NC2c1ccccc1 (configuration not stated)
inactive: dose: 100.0 mg/kg/injection, schedule: Q04DX003 (ip), vehicle: saline 100 % of control and 94 % of control | dose: 200.0 mg/kg/injection, schedule: Q04DX003 (ip), vehicle: saline 100 % of control and 94 % of control | dose: 400.0 mg/kg/injection, schedule: Q04DX003 (ip), vehicle: saline 100 % of control

Cc1cccc(OCCOC(=O)Nc2cccc(C(F)(F)F)c2)c1
inactive: dose: 60.0 mg/kg/injection, schedule: Q01DX005 (ip), vehicle: saline with Tween-80 99 % of control | dose: 120.0 mg/kg/injection, schedule: Q01DX005 (ip), vehicle: saline with Tween-80 96 % of control | dose: 240.0 mg/kg/injection, schedule: Q01DX005 (ip), vehicle: saline with Tween-80 96 % of control

O=C1CC=C2C3CC4N(CCC45c4cc(O)c(O)cc4N1C25)C/C3=C\CBr (configuration not stated)
inactive: dose: 7.5 mg/kg/injection, schedule: Q01DX005 (ip), vehicle: Klucel (hydroxypropylcellulose) (HPC) 106 % of control | dose: 15.0 mg/kg/injection, schedule: Q01DX005 (ip), vehicle: Klucel (hydroxypropylcellulose) (HPC) 108 % of control | dose: 30.0 mg/kg/injection, schedule: Q01DX005 (ip), vehicle: Klucel (hydroxypropylcellulose) (HPC) 123 % of control

CCOC(=O)Nc1ccc2nc(Sc3ccc(C)cc3)sc2c1
inactive: [1] 99 % of control | [2] 110 % of control | dose: 200.0 mg/kg/injection, schedule: Q01DX009 (ip), vehicle: saline with Tween-80 119 % of control

[Cl][Ge]([c]1ccccc1)[c]1ccccc1.[Cl][Ge]([c]1ccccc1)[c]1ccccc1
inactive: dose: 3.12 mg/kg/injection, schedule: Q01DX005 (ip), vehicle: Klucel (hydroxypropylcellulose) (HPC) 111 % of control | dose: 6.25 mg/kg/injection, schedule: Q01DX005 (ip), vehicle: Klucel (hydroxypropylcellulose) (HPC) 116 % of control | dose: 12.5 mg/kg/injection, schedule: Q01DX005 (ip), vehicle: Klucel (hydroxypropylcellulose) (HPC) 106 % of control

Cc1ccc(C2CNC(=S)S2)cc1 (configuration not stated)
inactive: dose: 50.0 mg/kg/injection, schedule: Q01DX009 (ip), vehicle: DMSO 92 % of control | dose: 100.0 mg/kg/injection, schedule: Q01DX009 (ip), vehicle: DMSO 98 % of control | dose: 200.0 mg/kg/injection, schedule: Q01DX009 (ip), vehicle: DMSO 98 % of control

C=C1C(=O)O[C@@H]2C[C@@]3(C)CC(=O)C=C(C)[C@@H]3C[C@H]12
inactive: dose: 6.25 mg/kg/injection, schedule: Q04DX003 (ip), vehicle: saline with Tween-80 108 % of control | dose: 12.5 mg/kg/injection, schedule: Q04DX003 (ip), vehicle: saline with Tween-80 104 % of control | dose: 25.0 mg/kg/injection, schedule: Q04DX003 (ip), vehicle: saline with Tween-80 108 % of control | dose: 50.0 mg/kg/injection, schedule: Q04DX003 (ip), vehicle: saline with Tween-80 100 % of control

C#CC1OC12CCC1C3CC=C4CC(O)CCC4(C)C3CCC12 (configuration not stated)
inactive: dose: 50.0 mg/kg/injection, schedule: Q01DX009 (ip), vehicle: suspension in saline 93 % of control | dose: 100.0 mg/kg/injection, schedule: Q01DX009 (ip), vehicle: suspension in saline 94 % of control | dose: 200.0 mg/kg/injection, schedule: Q01DX009 (ip), vehicle: suspension in saline 87 % of control

NC(=O)c1[nH]cnc1N
inactive: dose: 25.0 mg/kg/injection, schedule: Q01DX009 (ip), vehicle: saline 99 % of control | dose: 50.0 mg/kg/injection, schedule: Q01DX009 (ip), vehicle: saline 105 % of control | dose: 100.0 mg/kg/injection, schedule: Q01DX009 (ip), vehicle: saline 99 % of control | dose: 400.0 mg/kg/injection, schedule: Q01DX009 (ip), vehicle: saline 87 % of control

CCC[CH2][Sn]1([CH2]CCC)[O]C(=O)CC[S]1
inactive: dose: 3.13 mg/kg/injection, schedule: Q01DX005 (ip), vehicle: saline with Tween-80 121 % of control | dose: 6.25 mg/kg/injection, schedule: Q01DX005 (ip), vehicle: saline with Tween-80 115 % of control and 120 % of control | dose: 12.5 mg/kg/injection, schedule: Q01DX005 (ip), vehicle: saline with Tween-80 121 % of control

C=CCN1C(=O)CSC1=S
inactive: [3] 100 % of control | [4] 108 % of control | dose: 400.0 mg/kg/injection, schedule: Q01DX009 (ip), vehicle: Klucel (hydroxypropylcellulose) (HPC) 110 % of control

CCOc1cc2c(cc1C(CC)c1ccc(OCc3ccccc3)cc1)OCO2 (configuration not stated)
inactive: [5] 92 % of control | [6] 87 % of control

O=C(O)Cc1nn[nH]n1
inactive: dose: 100.0 mg/kg/injection, schedule: Q04DX003 (ip), vehicle: Klucel (hydroxypropylcellulose) (HPC) 107 % of control | dose: 200.0 mg/kg/injection, schedule: Q04DX003 (ip), vehicle: Klucel (hydroxypropylcellulose) (HPC) 108 % of control

CC(C)C1CC(N(C)C)=CC(=S)N1 (configuration not stated)
inactive: [5] 106 % of control | [6] 110 % of control | dose: 100.0 mg/kg/injection, schedule: Q01DX005 (ip), vehicle: saline 93 % of control | dose: 200.0 mg/kg/injection, schedule: Q01DX005 (ip), vehicle: saline 102 % of control

COC(=O)Nc1ccc(Cc2ccc(NC(=O)OC)cc2)cc1
inactive: [7] 101 % of control and 104 % of control

Nc1nc2c(c(=O)[nH]1)NC(CCNc1ccc(C(=O)NC(CCC(=O)O)C(=O)O)cc1)CN2 (configuration not stated)
inactive: [7] 100 % of control | [1] 104 % of control and 118 % of control | dose: 100.0 mg/kg/injection, schedule: Q01DX009 (ip), vehicle: saline sonified 113 % of control | [2] 122 % of control

CC1(C)CCC23CCC4(C)C(CCC5C6(C)CCC(O)C(C)(C)C6CCC54C)C2C1OC3 (configuration not stated)
inactive: dose: 50.0 mg/kg/injection, schedule: Q01DX009 (ip), vehicle: Klucel (hydroxypropylcellulose) (HPC) 87 % of control | [3] 87 % of control | [4] 89 % of control

NC(CCl)=NCCOC12CC3CC(CC(C3)C1)C2
inactive: dose: 15.0 mg/kg/injection, schedule: Q01DX005 (ip), vehicle: saline 103 % of control | dose: 30.0 mg/kg/injection, schedule: Q01DX005 (ip), vehicle: saline 103 % of control | [8] 106 % of control and 98 % of control

CCCCCCCCCCCC(O)CCCC(O)CC(O)CC1CC2CC(CC(=O)O2)O1 (configuration not stated)
inactive: dose: 4.0 mg/kg/injection, schedule: Q01DX009 (ip), vehicle: Klucel (hydroxypropylcellulose) (HPC) 100 % of control | dose: 8.0 mg/kg/injection, schedule: Q01DX009 (ip), vehicle: Klucel (hydroxypropylcellulose) (HPC) 99 % of control | dose: 16.0 mg/kg/injection, schedule: Q01DX009 (ip), vehicle: Klucel (hydroxypropylcellulose) (HPC) 95 % of control | dose: 32.0 mg/kg/injection, schedule: Q01DX009 (ip), vehicle: Klucel (hydroxypropylcellulose) (HPC) 95 % of control | dose: 64.0 mg/kg/injection, schedule: Q01DX009 (ip), vehicle: Klucel (hydroxypropylcellulose) (HPC) 94 % of control

COC(=O)c1nnc(C(=O)OC)c2c1c1ccccc1n2C(C)=O
inactive: dose: 100.0 mg/kg/injection, schedule: Q04DX002 (ip), vehicle: saline with Tween-80 99 % of control | dose: 200.0 mg/kg/injection, schedule: Q04DX002 (ip), vehicle: saline with Tween-80 99 % of control | dose: 400.0 mg/kg/injection, schedule: Q04DX002 (ip), vehicle: saline with Tween-80 99 % of control

Nc1nc(-c2ccc(Cl)cc2)cc(-c2cc(-c3ccc(Cl)cc3)nc(N)n2)n1
inactive: [8] 110 % of control | dose: 120.0 mg/kg/injection, schedule: Q01DX005 (ip), vehicle: saline 102 % of control | dose: 240.0 mg/kg/injection, schedule: Q01DX005 (ip), vehicle: saline 100 % of control

— PubChem BioAssay AID330 (DTP/NCI, 2004)
